In PubChem BioAssay (NCI) one finds TGI and GI50 data, which are given here for 26 molecules.

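Compound exposure: 48 hours, 5 concentrations, 96-well plates. At the GI50, growth is halved. The concentration for full growth arrest is given as TGI.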

Assay in all cases: NCI tumour cell line growth inhibition, 48 h
The subject of assay [1] is M19-MEL melanoma.
Assay [2] deals with DLD-1 colon.
Assay [3] relates to RXF-631 renal.
The subject of assay [4] is LXFL 529 NSCLC.
In assay [5] the test system is HOP-18 NSCLC.
For assay [6], the system named is XF 498 CNS.
Assay [7] concerns SNB-78 CNS.
Assay [8] relates to MDA-N.
For assay [9], the system named is KM20L2 colon.
The test system of assay [10] is P388 leukemia.
Assay [11] has as its system SN12K1 renal.
Assay [12] relates to P388/ADR leukemia.

In the case of `O=C(c1ccccc1)n1cc(/C=C/[N+](=O)[O-])c2ccccc21`, the TGI in assay [1] is 38.9 µM; in assay [2], 33.5 µM; in [3], 48.2 µM; in assay [4], 35.1 µM; in assay [5], over 100 µM; in assay [6], 78.5 µM. In [7], the TGI was 79.9 µM.

`COc1cc(-c2oc3c(OC)c(O)c(OC)c(O)c3c(=O)c2OC)cc(OC)c1OC` registered a TGI in assay [8] of over 100 µM.

Regarding `O=c1cccccc1[O-].O=c1cccccc1[O-].O=c1cccccc1[O-].[Nd+3]`, the GI50 in assay [2] is 36.4 µM; in [7], 20.6 µM; in assay [9] it was 31.7 µM. The TGI in assay [2], in assay [7] and in [9] was over 100 µM in each case.

As to `CCCCCCCCCCCCC(O)C1CCC(C(O)CCCCC(O)CCCCCC2CC(CC(C)=O)C(=O)O2)O1` (configuration not stated), the TGI came out at 12.5 µM in [1]; 21 µM in assay [2]; 16.7 µM in [3]; 16.3 µM in assay [4]; 23.3 µM in [5]; 8.44 µM in assay [6]. Besides, the TGI in assay [7] is over 41 µM; in assay [9], 19.7 µM; in [8], 4.81 µM.

As for `CCCCCc1cc(/C=C2/N=C(c3ccc[nH]3)C=C2OC)[nH]c1C`, the TGI in assay [8] stood at 0.155 µM.

`CCOC(=O)C#Cc1cccc(C#CC(=O)OCC)c1`: in assay [8], the TGI is 6.44 µM.

Regarding `Cc1ccccc1N(CCC#N)C1=NN(C(=O)CC(=O)Nc2ccc(Cl)cc2)C(c2ccccc2)C1` (configuration not stated), the TGI in [1], in assay [2], in assay [3], in [4], in [5] and in assay [7] was over 100 µM throughout. This molecule also returned a TGI in assay [9] of over 100 µM.

Take `O=C(O)CN1C(=O)OC(c2ccccc2)C1=O` (configuration not stated): the TGI in assay [8] is over 100 µM.

Regarding `CC(C)(C)N1CC1CNC(=O)C(=O)NCC1CN1C(C)(C)C` (configuration not stated), the TGI is 2.62 µM in [1], 1.31 µM in [6], 5.96 µM in [9] and over 92.9 µM in assay [8].

With `CC(=O)Oc1ccc2c(=O)c(C(C)=O)coc2c1`, the TGI in assay [1], in assay [4], in assay [6], in assay [7] and in assay [9] was over 100 µM in each case.

On to `CC(=O)OC1C(O)C(C)OC(OC2C(OC(=O)C3CCC4C(C3)OC3(CC(OC(=O)/C=C/c5ccccc5)C(C)CO3)C43CO3)OC(C)C(O)C2OC(C)=O)C1O` (configuration not stated), for which the TGI in assay [1] is 0.0665 µM; in assay [10] it was 279 nM; in assay [2], over 1.5 µM; in assay [11], 58.3 nM; in assay [12] it was over 2500 nM; in assay [5], 0.413 µM. In addition, the TGI in assay [6] was 0.0896 µM; in assay [9], 0.21 µM; in [8], 0.0182 µM.

As for `OC1CC(O)O[C@H](c2ccccc2)C1` (some centres not stated), the TGI in assay [1], in assay [2], in [4], in assay [5], in [7] and in assay [9] was over 100 µM each time.

Regarding `CC(=O)OCc1nnn2c1C(OC(C)=O)CC2` (configuration not stated), the TGI in assay [1], in assay [2], in [3], in assay [4], in [6] and in assay [7] was over 100 µM each time. In [9], this molecule displayed a TGI of over 100 µM.

The molecule `CNC(=O)/C=C/C1=CN2C(=O)c3ccc(C)c(O)c3NC(OC)C2C1` (configuration not stated) showed a TGI in assay [8] of under 0.0211 µM.

Consider `NNC(=O)/C(NC(=O)c1ccccc1)=C(\N)c1cccc([N+](=O)[O-])c1`, for which the TGI in assay [1], in assay [2], in [3], in [4], in [5] and in assay [6] was over 100 µM throughout. The molecule further gave a TGI in assay [7] of over 100 µM.

As for `CC(=O)[O-].CC(=O)[O-].O=C([CH-]C(=O)c1ccccc1)c1ccccc1.[Nd+3].[OH3+]`, in assay [9], the GI50 was 30.5 µM and the TGI is over 100 µM.

`Cc1[nH]c(=O)n2c(C)nnc2c1C(=O)O`: the TGI in assay [1], in assay [2], in assay [4], in assay [6] and in assay [7] was over 100 µM in each case.

In the case of `COc1ccc(C2=C(c3ccccc3)C(=O)N3CCCC3C2)cc1` (configuration not stated), in assay [8], the GI50 was 441 nM and the TGI was over 100 µM.

As to `OC1(C(Sc2ccccc2)Sc2ccccc2)CCCCCC1`, the TGI in assay [1] is over 100 µM; in assay [2], over 100 µM; in assay [6], 35.7 µM; in assay [7] it was over 100 µM; in [9], 9.27 µM.

Turning to `CC[O-].CC[O-].O=C1C=C([O-])C(=O)c2ccccc21.O=C1C=C([O-])C(=O)c2ccccc21.[Ti+4]`, the GI50 in assay [1] is 1610 nM; in assay [2], over 100 µM; in assay [4], 83.3 µM; in assay [5], over 100 µM; in assay [6] it was over 100 µM; in [9] it was 84.7 µM. Besides, the TGI in assay [1] was 3.81 µM; in [2], over 100 µM; in [4], over 100 µM; in [5], over 100 µM; in [6], over 100 µM; in [9], over 100 µM.

On to `C/C=C1\Oc2ccc(OC)cc2S1(=O)=O`, for which the TGI in [1], in assay [2], in [4], in assay [5], in assay [7] and in assay [9] was over 100 µM throughout.

Regarding `O=C(O)C1=Cc2cccc3cccc(c23)C1=O`, the TGI in assay [1], in assay [2], in [4], in assay [5] and in assay [9] was over 100 µM throughout.

With `C[C@@H](NC1CCCC[C@@H]1O)c1ccccc1` (some centres not stated), the TGI in [1], in assay [2], in assay [4], in assay [5], in assay [6] and in [7] was over 100 µM in each case. The TGI in assay [9] is over 100 µM.

In the case of `CCN(N=O)C1C2(CCCC2)NC(=O)C12CCCC2` (configuration not stated), the TGI in [1], in assay [2], in assay [3], in [4], in [5] and in assay [6] was over 100 µM throughout. Moreover, the TGI in assay [7] and in [9] was over 100 µM each time.

`O=C(CCN1CCCCC1)c1csc2ccccc12` yielded a TGI in assay [8] of over 100 µM.

Take `CCOC(=O)CCc1c(C)c2c(OC)cc(OC)cc2oc1=O`: the TGI in [1] is over 100 µM; in [2] it was over 100 µM; in assay [4] it was over 100 µM; in [5], 99 µM; in [6], 93.8 µM; in assay [7] it was over 100 µM. In assay [9], this molecule returned a TGI of over 100 µM.
